Experimental data reported in US20250041209A1, “THERMOSENSITIVE MODIFIED CHITIN SPONGE DRUG-LOADED IMPLANTED SUSTAINED-RELEASE SYSTEM, PREPARATION METHOD THEREFORE, AND USE THEREOF” (priority 2022, published 2025).
Structures can show the parent of a compound that is named as a salt.

System: cutaneous trunci muscle reflex
Assay: guinea pig pin-prick assay, local anesthetic efficacy of subcutaneously implanted sponges
Assay type: in vivo
Details: subcutaneous implant (sponge about 0.5 g) or 0.5 mL solution injected, n=6
Description: To evaluate in vivo the local anesthetic efficacy of the drug-loaded implanted thermosensitive hydroxypropyl chitin sponges prepared in Example 1, guinea pig pin-prick assay was employed in this invention. Guinea pigs (around 300 g) were induced and maintained with isoflurane. Then the left backs of guinea pigs were shaved before treatment. One longitudinal skin incision with 1.5 cm in length was made by a scalpel at 2 cm left of ridge midline on the back of the guinea pig. Subsequently, one cuboid sponge about 0.5 g (1 cm×1 cm×0.5 cm) was put right in the middle of the incision below the skin. The incision was finally stitched up. 36 animals were randomly divided into six experimental groups with each of 6: group 1: BPV-loaded 0.8B %-HPCH (3.6 wt %) sponge, group 2: 0.8B %-collagen/HPCH (0.6/3.0 wt %) sponge, group 3: 1.2B %-HPCH (3.6 wt %) sponge, group 4: 2.4B %-HPCH (3.6 wt %) sponge, 0.8%-BPV group 5 (0.8 wt % BPV solution) and sham-operated group 6. As for sham-operated group, the incision was made and stitched up without placing a sponge. For BPV solution group, a volume of 0.5 mL 0.8% BPV solution was injected subcutaneously near the skin incision using 30-gage hypodermic needle. […] The nociceptive blockade score (N %) was calculated as following equation: N %=n/8×100%. […]

With `CCCCN1CCCCC1C(=O)Nc1c(C)cccc1C` (stereo not shown) [0.8%-BPV, bupivacaine hydrochloride] the “effective duration of blockade (time with nociceptive blockade score≥50%)” value was 1 h.
